# Experimental data taken from US20150159167A1, “Plants Tolerant to HPPD Inhibitor Herbicides” (Bayer CropScience AG, priority 2009, published 2015).
# How the values were obtained:
# [1] = tested on: T0 rice plants containing FMP38e; test: Rice glasshouse trial, response to tembotrione; assay type: in vivo; conditions: 100 g AI/ha, 7 DAT
# Experimental: T0 rooted plantlets (either selected on phosphinothricin alone or on phosphinothricin supplemented with tembotrione) were transferred to soil in the glasshouse. Following an acclimation period, sufficiently grown plants were treated with the different HPPD inhibitor herbicides. As an example, T0 plants were sprayed with tembotrione of formulation type WP20 100 g AI/ha supplemented with ammonium sulfate and methyl ester raps oil. Seven days after the spray application, the symptoms due to the application of the herbicide were evaluated and compared the symptoms observed on wild type plants submitted to the same treatment.
# The plants were classified in three categories based on the phenotype developed in response to the herbicide seven days after the treatment.
# [2] = tested on: rice shoots transformed with FMP38e; test: Bleaching of rice shoots on MS/2 with tembotrione; assay type: in vivo; conditions: evaluation 2 weeks later
# Experimental: Rice transformation was achieved using methods well known in the art. Briefly, the Agrobacterium tumefaciens mediated transformation of rice was performed using immature embryos, from the restorer line 6G4317. Briefly, panicles from donor plants were harvested 8-12 days after pollination. The lemma of the immature seed was removed. Seeds were thereafter sterilized using a NaOCl based solution and Tween. The seeds were preinduced with […]. Agrobacterium tumefaciens cells are then co-cultivated with the preinduced seeds in presence of acetosyringone for 4 days at 24° C. in the dark. Thereafter, coleoptile from embryos are removed and washed, then put on a media supplemented with phosphinothricin for 3 weeks at 28° C. under a photoperiod rhythm of 16 hours. Then the growing calli were cut off from the embryos, and transferred to fresh media containing triacillin, phosphinothricin, L-proline and copper (II) sulfate.
# For each callusline and per Tembotrione concentration, 3 shoots, and randomly isolated from different callus pieces, were transferred to MS/2 with Tembotrione. As a general rule, transfer of the shoots from regeneration medium to MS/2 occurred 9 weeks after calli had been put on regeneration medium.
# Cultures were incubated at 26.5° C. (16 hrs. photoperiod) and evaluation of symptoms occurred 2 weeks later.
# New developing leaves of the shoots transferred have been scored on the basis of bleaching and categorized in 3 groups:
# a) no bleaching b) intermediate bleaching c) complete bleaching
# Within the category ‘intermediate bleaching’ a distinction has been made between shoots having new leaves showing only very little bleaching symptoms and thus tending to green leaves, and shoots with new leaves almost completely bleached.
# [3] = biological target: T1, Arabidopsis thaliana HPPD "SEQ ID No. 10" (Arabidopsis thaliana, UniProt P93836); test: HPLC assay of HPPD activity, in vitro kinetic properties; assay type: biochemical
# T1 construct: Preparation of Synechococcus sp; Ala + 6xHis (N); made in house; host or cells: E. coli K-12 BL21 (pQE30-AtHPPD)
# T1 sequence (P93836 with tags, fused parts or gaps): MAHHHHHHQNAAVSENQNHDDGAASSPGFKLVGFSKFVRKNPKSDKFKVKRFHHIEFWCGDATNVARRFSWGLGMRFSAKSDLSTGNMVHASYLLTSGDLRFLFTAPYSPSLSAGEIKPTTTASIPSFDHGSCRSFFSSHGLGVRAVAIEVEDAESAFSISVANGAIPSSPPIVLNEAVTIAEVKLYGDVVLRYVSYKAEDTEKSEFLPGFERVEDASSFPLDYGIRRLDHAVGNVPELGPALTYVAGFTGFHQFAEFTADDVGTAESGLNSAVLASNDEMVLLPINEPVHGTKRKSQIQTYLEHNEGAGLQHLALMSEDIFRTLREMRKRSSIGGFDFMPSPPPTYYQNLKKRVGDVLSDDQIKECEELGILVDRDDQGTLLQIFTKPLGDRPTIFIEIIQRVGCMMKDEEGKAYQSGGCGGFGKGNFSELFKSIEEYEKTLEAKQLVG
# Experimental: Km, Vmax, and kcat values for different HPPD enzyme preparations and Ki, K1=Kon, and K−1=Koff for different HPPD inhibitors were determined using a HPLC assay for measurements of HPPD activity. […] All assays were started by the addition of HPPD enzyme to the assay mixture and stopped at a series of times between 0 and 240 s by addition of 200 μl of the reaction mixture to reaction assay tubes containing 20 μl 10% perchloric acid. Precipitated protein was pelleted by a 5 minute centrifugation at 10,000 g.
# For Km and Vmax value determinations the initial rates of the HPPD reaction at different substrate concentrations were determined from plots of HGA formed versus time and fitted to the Michaelis-Menten equation for unireactant enzymes using the ID Business Solutions Ltd. (idbs.com) XLfit software suite.
# In below given table 1, “Km” (Michaelis-Menten constant) means the kinetic parameter that is used to characterise an enzyme, and it is defined as the concentration of substrate that permits half maximal rate of the reaction. Km is further defined as the substrate concentration at which the reaction rate reaches half of its maximum value (Vmax/2) where Vmax has the meaning of being the maximum velocity of the reaction.
# Kon=K1 equals the association rate constant of the […] binding and Koff=K−1 equals the rate constant of the enzyme-inhibitor complex dissociation. Ki defines the inhibition constant.
smiles,measurement,setting,value
"CS(=O)(=O)c1ccc(C(=O)C2C(=O)CCCC2=O)c(Cl)c1COCC(F)(F)F [Tembotrione, 2-[2-chloro-4-(methylsulfonyl)-3-[(2,2,2,-tri-fluoroethoxy)methyl]benzoyl]-1,3-cyclo-hexanedione]","Class I (no injuries), number of plants",[1],9
same,"Class II (injury: 10-40%), number of plants",[1],8
same,"Class III (injury: 41-100%), number of plants",[1],8
same,No of shoots completely bleached,[2]; 1 μM,0
same,No of shoots with intermediate bleaching,[2]; 1 μM,4
same,No of shoots without bleaching,[2]; 1 μM,38
same,No of shoots with intermediate bleaching,[2]; 5 μM,35
same,No of shoots without bleaching,[2]; 5 μM,3
same,kon,[3]; read-out: k1 (Kon),230000 M⁻¹ s⁻¹
same,koff,[3]; read-out: k−1 (Koff),0.0035 s⁻¹
